Several values for one entry are separate records, joined by “and”; a condition that tells them apart may be missing. Identical values can stand only once. Counter-ions that a name gives are not always drawn.
Target: 5-hydroxytryptamine receptor 4 (Mus musculus, UniProt P97288)
Sequence (P97288 whole entry): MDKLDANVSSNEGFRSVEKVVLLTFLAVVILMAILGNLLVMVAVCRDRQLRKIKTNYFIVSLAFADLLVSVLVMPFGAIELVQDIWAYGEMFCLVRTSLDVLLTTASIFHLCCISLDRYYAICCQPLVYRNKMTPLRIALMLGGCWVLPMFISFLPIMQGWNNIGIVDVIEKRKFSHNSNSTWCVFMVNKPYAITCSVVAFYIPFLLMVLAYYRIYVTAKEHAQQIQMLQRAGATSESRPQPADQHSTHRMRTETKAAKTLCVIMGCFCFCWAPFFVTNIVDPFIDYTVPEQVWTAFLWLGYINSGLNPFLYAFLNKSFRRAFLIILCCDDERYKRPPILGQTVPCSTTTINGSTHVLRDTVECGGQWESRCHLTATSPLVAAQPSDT

Compared with CN1C2CCC1CC(OC(=O)c1c[nH]c3ccccc13)C2 (stereo not given), COc1ccc2[nH]c(=O)n(C(=O)OC3CC4CCC(C3)N4C)c2c1 (stereo not given) [DAU 6285] is 1.6-fold lower in Ki: 87.1 nM for the first, 55 nM for the second. The second binds more tightly here.

Going from COc1cc(N)c(Cl)cc1C(=O)NC1CCN(CCCC(=O)N2CCC(N(C)C)CC2)CC1OC (stereo not given) [4-Amino-5-chloro-N-(1-{4-[4-(dimethylamino)-1-piperidinyl]-4-oxobutyl}-3-methoxy-4-piperidinyl)-2-methoxybenzamide] to COc1cc(N)c(Cl)cc1C(=O)NC1CCN(CCCOc2ccc(F)cc2)CC1OC (stereo not given) [4-amino-5-chloro-N-(1-(3-(4-fluorophenoxy)propyl)-3-methoxypiperidin-4-yl)-2-methoxybenzamide], the Ki rises from 2.88 nM to 32.4 nM (11-fold).

Going from CCN(CC)CCNC(=O)c1cc(Cl)c(N)cc1OC [4-amino-5-chloro-N-[2-(diethylamino)ethyl]-2-methoxy-benzamide;hydrochloride] to CCN(CC)CCOC(=O)c1cc(Cl)c(N)cc1OC [SDZ-205557], the Ki falls from 891 nM to 7.76 nM (110-fold). The second binds more tightly here.

CCn1c(=O)n(C(=O)NC2CC3CCC(C2)N3C)c2ccccc21 (stereo not given) [BIMU 1] and CC(C)n1c(=O)n(C(=O)NC2C[C@H]3CC[C@@H](C2)N3C)c2ccccc21 (stereo not given in full) [BIMU 8] are within 1.5-fold of each other in Ki: 28.8 nM for the first, 40.7 nM for the second.

Compared with Cn1cc(C(=O)OCC2CCN(CCNS(C)(=O)=O)CC2)c2ccccc21 [GR 113808], COc1[nH]c2ccc(F)cc2c1C(=O)OCC1CCN(CCNS(C)(=O)=O)CC1 [GR-125487] is 10-fold lower in Ki: 0.2 nM for the first, 0.02 nM for the second. The second binds more tightly here.

COc1cc(N)c(Cl)cc1C(=O)NC1CCN2CCCC1C2 (stereo not given) [NSC_3035240] and COc1cc(N)c(Cl)cc1C(=O)NC1CN2CCC1CC2 (stereo not given) [ZACOPRIDE,R] are within 1.5-fold of each other in Ki: 132 nM for the first, 191 nM for the second.

Compared with NCCc1c[nH]c2ccc(O)cc12 [[3H]-5-HT], COc1ccc2[nH]cc(CCN)c2c1 [tryptamine, 5-Methoxy] is 4.1-fold higher in Ki: 56.2 nM for the first, 229 nM for the second. The first binds more tightly here.

With NCCc1c[nH]c2ccc(C(N)=O)cc12 [[3H]-5-carboxamidotryptamine] the Ki was > 10000 nM and 9770 nM.

From BindingDB's records for doi:10.1016/s0014-5793(96)01132-5 (Cnrs Upr 9023, 1996)
